Laboratory results published in the NIST ThermoML archive (doi:10.1016/j.fluid.2011.01.013).

Test: xn = mol fraction of the nth substance listed
Conditions: Gas, Oscillating disk viscometry

CCN(CC)CC [triethylamine] + CO
Conditions | viscosity [mPa·s]
296.97 K, Mass density=2.1808 kg/m3, x2 = 0.4998 | 0.007913
297.25 K, Mass density=0.6964 kg/m3, x2 = 0.4996 | 0.007853
298.22 K, Mass density=1.2804 kg/m3, x2 = 0.3322 | 0.007476
298.82 K, Mass density=0.6964 kg/m3, x2 = 0.4996 | 0.007887
298.92 K, Mass density=1.1039 kg/m3, x2 = 0.4982 | 0.007914
299.02 K, Mass density=0.6482 kg/m3, x2 = 0.4999 | 0.007865
310.39 K, Mass density=0.6964 kg/m3, x2 = 0.4996 | 0.008055
310.51 K, Mass density=2.1808 kg/m3, x2 = 0.4998 | 0.008259
310.56 K, Mass density=0.6482 kg/m3, x2 = 0.4999 | 0.008025
310.62 K, Mass density=1.1039 kg/m3, x2 = 0.4982 | 0.008147
310.75 K, Mass density=1.5253 kg/m3, x2 = 0.5035 | 0.008235
311.73 K, Mass density=1.2804 kg/m3, x2 = 0.3322 | 0.007712
324.1 K, Mass density=2.1808 kg/m3, x2 = 0.4998 | 0.008539
324.27 K, Mass density=1.2804 kg/m3, x2 = 0.3322 | 0.007852
324.64 K, Mass density=0.6964 kg/m3, x2 = 0.4996 | 0.008338
325.29 K, Mass density=1.1039 kg/m3, x2 = 0.4982 | 0.008337
325.44 K, Mass density=0.6482 kg/m3, x2 = 0.4999 | 0.008367
326.59 K, Mass density=1.5253 kg/m3, x2 = 0.5035 | 0.008476
337.6 K, Mass density=1.2804 kg/m3, x2 = 0.3322 | 0.008072
338.04 K, Mass density=1.5253 kg/m3, x2 = 0.5035 | 0.008626
338.18 K, Mass density=0.6482 kg/m3, x2 = 0.4999 | 0.008693
338.18 K, Mass density=1.1039 kg/m3, x2 = 0.4982 | 0.008632
338.37 K, Mass density=0.6964 kg/m3, x2 = 0.4996 | 0.008695
338.58 K, Mass density=2.1808 kg/m3, x2 = 0.4998 | 0.00869
352.3 K, Mass density=0.6964 kg/m3, x2 = 0.4996 | 0.009039
352.47 K, Mass density=0.6482 kg/m3, x2 = 0.4999 | 0.009053
352.57 K, Mass density=1.1039 kg/m3, x2 = 0.4982 | 0.009009
352.83 K, Mass density=2.1808 kg/m3, x2 = 0.4998 | 0.008949
352.91 K, Mass density=1.2804 kg/m3, x2 = 0.3322 | 0.008441
353.02 K, Mass density=1.5253 kg/m3, x2 = 0.5035 | 0.009026
365.7 K, Mass density=2.1808 kg/m3, x2 = 0.4998 | 0.009281
365.96 K, Mass density=1.5253 kg/m3, x2 = 0.5035 | 0.009349
366.02 K, Mass density=1.2804 kg/m3, x2 = 0.3322 | 0.008766
366.12 K, Mass density=1.5253 kg/m3, x2 = 0.5035 | 0.009363
366.13 K, Mass density=0.6482 kg/m3, x2 = 0.4999 | 0.009411
366.22 K, Mass density=1.2804 kg/m3, x2 = 0.3322 | 0.008747
366.24 K, Mass density=0.6964 kg/m3, x2 = 0.4996 | 0.009388
366.29 K, Mass density=1.1039 kg/m3, x2 = 0.4982 | 0.009353
366.41 K, Mass density=2.1808 kg/m3, x2 = 0.4998 | 0.009307
366.96 K, Mass density=0.6482 kg/m3, x2 = 0.4999 | 0.009415
367.89 K, Mass density=1.1039 kg/m3, x2 = 0.4982 | 0.009381
379.75 K, Mass density=1.2804 kg/m3, x2 = 0.3322 | 0.009075
380.83 K, Mass density=2.1808 kg/m3, x2 = 0.4998 | 0.009681
381.57 K, Mass density=0.6482 kg/m3, x2 = 0.4999 | 0.009793
381.81 K, Mass density=1.5253 kg/m3, x2 = 0.5035 | 0.00977
381.91 K, Mass density=1.1039 kg/m3, x2 = 0.4982 | 0.009758
383.76 K, Mass density=0.6964 kg/m3, x2 = 0.4996 | 0.009828
394.29 K, Mass density=2.1808 kg/m3, x2 = 0.4998 | 0.01004
394.84 K, Mass density=1.5253 kg/m3, x2 = 0.5035 | 0.01009
394.95 K, Mass density=0.6964 kg/m3, x2 = 0.4996 | 0.0101
394.98 K, Mass density=1.2804 kg/m3, x2 = 0.3322 | 0.009437
395.04 K, Mass density=0.6482 kg/m3, x2 = 0.4999 | 0.01012
395.34 K, Mass density=1.1039 kg/m3, x2 = 0.4982 | 0.01008
408.74 K, Mass density=1.2804 kg/m3, x2 = 0.3322 | 0.009753
409.01 K, Mass density=1.1039 kg/m3, x2 = 0.4982 | 0.01044
409.18 K, Mass density=2.1808 kg/m3, x2 = 0.4998 | 0.01042
409.61 K, Mass density=0.6482 kg/m3, x2 = 0.4999 | 0.0105
410.61 K, Mass density=1.5253 kg/m3, x2 = 0.5035 | 0.0105
410.75 K, Mass density=0.6964 kg/m3, x2 = 0.4996 | 0.01052
422.83 K, Mass density=1.2804 kg/m3, x2 = 0.3322 | 0.01008
423.21 K, Mass density=1.5253 kg/m3, x2 = 0.5035 | 0.01081
423.31 K, Mass density=0.6964 kg/m3, x2 = 0.4996 | 0.01083
423.64 K, Mass density=2.1808 kg/m3, x2 = 0.4998 | 0.01078
423.81 K, Mass density=1.1039 kg/m3, x2 = 0.4982 | 0.01081
425.55 K, Mass density=0.6482 kg/m3, x2 = 0.4999 | 0.01091
436.79 K, Mass density=1.5253 kg/m3, x2 = 0.5035 | 0.01116
436.89 K, Mass density=2.1808 kg/m3, x2 = 0.4998 | 0.01111
436.91 K, Mass density=0.6964 kg/m3, x2 = 0.4996 | 0.01117
437.47 K, Mass density=1.1039 kg/m3, x2 = 0.4982 | 0.01116
438.27 K, Mass density=0.6482 kg/m3, x2 = 0.4999 | 0.01122
441.21 K, Mass density=1.2804 kg/m3, x2 = 0.3322 | 0.01053
451.54 K, Mass density=1.2804 kg/m3, x2 = 0.3322 | 0.01076
451.6 K, Mass density=1.5253 kg/m3, x2 = 0.5035 | 0.01154
451.74 K, Mass density=1.1039 kg/m3, x2 = 0.4982 | 0.01151
452.02 K, Mass density=2.1808 kg/m3, x2 = 0.4998 | 0.01151
452.69 K, Mass density=0.6964 kg/m3, x2 = 0.4996 | 0.01157
453.25 K, Mass density=0.6482 kg/m3, x2 = 0.4999 | 0.01161
466.65 K, Mass density=2.1808 kg/m3, x2 = 0.4998 | 0.01188
466.76 K, Mass density=1.5253 kg/m3, x2 = 0.5035 | 0.01191
467.26 K, Mass density=1.1039 kg/m3, x2 = 0.4982 | 0.0119
467.4 K, Mass density=1.2804 kg/m3, x2 = 0.3322 | 0.01113
467.62 K, Mass density=0.6482 kg/m3, x2 = 0.4999 | 0.01197
480.98 K, Mass density=1.2804 kg/m3, x2 = 0.3322 | 0.01145
481.28 K, Mass density=1.1039 kg/m3, x2 = 0.4982 | 0.01225
481.51 K, Mass density=2.1808 kg/m3, x2 = 0.4998 | 0.01224
481.53 K, Mass density=0.6964 kg/m3, x2 = 0.4996 | 0.01229
482.14 K, Mass density=0.6482 kg/m3, x2 = 0.4999 | 0.01231
482.73 K, Mass density=1.5253 kg/m3, x2 = 0.5035 | 0.01229
494.94 K, Mass density=0.6964 kg/m3, x2 = 0.4996 | 0.01263
495.26 K, Mass density=1.2804 kg/m3, x2 = 0.3322 | 0.01179
495.28 K, Mass density=2.1808 kg/m3, x2 = 0.4998 | 0.0126
495.78 K, Mass density=1.5253 kg/m3, x2 = 0.5035 | 0.01264
496.37 K, Mass density=0.6482 kg/m3, x2 = 0.4999 | 0.01269
497.66 K, Mass density=1.1039 kg/m3, x2 = 0.4982 | 0.01267
